Consider three compounds from article PMC6071539 (Theranostics, 2018).

Molecules are shown by their SMILES.

The subject of one data set is carboxylesterases. The settings on record: in the body, background statement; cited from earlier work.
In a further data set the test system is Hep 3B cells. The experiment in a line: Cell proliferation by EdU incorporation. It counts as cell-based, human. The note with it: 2 μM SN38 equivalent, 24 h.
Another data set concerns human HCC PDX tumors. In words: Antitumor activity in human HCC PDX tumor model. It counts as in vivo, Balb/c nude mice. The settings on record: i.v. x3.
For data set [1] the following is noted: clinical; cited from earlier work.
Data set [2] in a line: Bloody diarrhea and intestinal damage study. It counts as in vivo, Balb/c mice.
Data set [3] can be described thus: Pharmacokinetics after single i.v. injection. The settings on record: Sprague-Dawley, rat, in vivo, iv, 12 mg/kg.
Another data set deals with BEL-7402. The experiment in a line: In vitro cytotoxicity, MTT assay, BEL-7402. It counts as cell-based. The settings on record: Homo sapiens, Bel-7402, 72 h, read-out: IC50 ± SD.
Another data set has as its system Hep 3B. The experiment in a line: In vitro cytotoxicity, MTT assay, Hep 3B. It counts as cell-based. The settings on record: Homo sapiens, Hep3B, 72 h, read-out: IC50 ± SD.
Data set [4] can be described thus: Drug loading and encapsulation efficiency by RP-HPLC. It counts as physicochemical. The note with it: PEG5k-PLA8k NPs, matrices/SN38 feed weight ratio 19:1, n = 3.
A further data set has as its system advanced HCC. The note with it: patients with advanced HCC; cited from earlier work.

Turning to `CCc1c2c(nc3ccc(OC(=O)N4CCC(N5CCCCC5)CC4)cc13)-c1cc3c(c(=O)n1C2)COC(=O)[C@]3(O)CC` [CPT-11, irinotecan], the “Enzymatic conversion to SN38, share of dosed CPT-11” value with carboxylesterases was “less than 8%”. For the same compound, the “Effect on proliferation (EdU incorporation)” value with Hep 3B cells is recorded as “negligible effect”. In addition, in the data set with human HCC PDX tumors, the “Antitumor efficacy” value is “moderate efficacy”. The “Incidence of grade 3 or 4 diarrhea” value in data set [1] is on record as 31%. Also, the “Large intestine histology (H&E)” value in data set [2] (day 9, healthy Balb/c mice) was “destruction of these tissues by eliminating the glands and causing diffuse mucosal damage”. Also, in data set [2] (healthy Balb/c mice, CPT-11 22.5 mg/kg i.v. x3), the “Onset of bloody diarrhea” value turned out to be 2 days. In [3], this compound returned an AUC(0-inf) of 68900 ng·h/mL, an AUC(0-t) of 67600 ng·h/mL and a maximum concentration (Cmax) of 23800 ng/mL. Besides, the IC50 in the data set with BEL-7402 was determined as 42 ± 2.06 µM. The IC50 in the data set on Hep 3B was determined as 49.3 ± 3.3 µM.

With `CCc1c2c(nc3ccc(O)cc13)-c1cc3c(c(=O)n1C2)COC(=O)[C@]3(O)CC` [SN38, 7-ethyl-10-hydroxycamptothecin], the figures for the IC50 with BEL-7402 and with Hep 3B were 2.76 ± 0.16 µM and 7.74 ± 1.18 µM, respectively. Further, in data set [4], the “EE (encapsulation efficiency)” value was below 5%.

Regarding `CNC(=O)c1cc(Oc2ccc(NC(=O)Nc3ccc(Cl)c(C(F)(F)F)c3)cc2)ccn1` [sorafenib], in the data set on advanced HCC, the “Extension of median overall survival compared with a placebo” value is 2.8 months.
